From the Deep4Chem optical property database
One block for each molecule: values may come before it.

Assay: solvent given as SMILES

SMILES: CCCCCCOc1ccc(C#Cc2ccc(C#CC#Cc3ccc(C#Cc4ccc(OCCCCCC)c(OCCCCCC)c4)c4nsnc34)c3nsnc23)cc1OCCCCCC
fluorescence lifetime (in CN(C)C=O): 0.5 ns | fluorescence lifetime (in COc1ccccc1): 2.2 ns | fluorescence lifetime (in Cc1ccccc1): 1.9 ns | fluorescence lifetime (in ClC(Cl)Cl): 2.6 ns | fluorescence lifetime (in ClCCCl): 2 ns | fluorescence lifetime (in ClCCl): 2.5 ns

SMILES: C[Si]1(C)c2ccc(-c3cccs3)cc2C=Cc2cc(-c3cccs3)ccc21
fluorescence lifetime (in ClCCl): 2 ns

SMILES: N#Cc1c(-n2c3ccc(Br)cc3c3cc(Br)ccc32)c(-n2c3ccc(Br)cc3c3cc(Br)ccc32)c(C#N)c(-n2c3ccc(Br)cc3c3cc(Br)ccc32)c1-n1c2ccc(Br)cc2c2cc(Br)ccc21
fluorescence lifetime (in Cc1ccccc1): 0.3 ns

SMILES: F[B-]1(F)OC(c2ccc(N3CCCC3)cc2)=Cc2cccc[n+]21
fluorescence lifetime (in ClC(Cl)Cl): 2.72 ns

SMILES: CCOC(=O)C1=CN(Cc2ccccc2)C=C(C(=O)OCC)C1
fluorescence lifetime (in C1CCOC1): 25.6 ns | fluorescence lifetime (in CO): 28.2 ns

SMILES: CC(C)c1cc(C(C)C)c(B2c3ccccc3Oc3cc(-n4c5ccccc5c5ccc6c(c7ccccc7n6-c6ccccc6)c54)ccc32)c(C(C)C)c1
fluorescence lifetime (in CC(C)c1cc(C(C)C)c(-c2ccc(-n3c4ccccc4n4c5ccccc5nc34)nc2)c(C(C)C)c1): 29.6 ns | fluorescence lifetime (in O=P(c1ccccc1)(c1ccccc1)c1ccccc1Oc1ccccc1P(=O)(c1ccccc1)c1ccccc1): 27 ns

SMILES: O=S1(=O)c2ccccc2C2(c3cc(-c4ccc(-n5c6ccccc6c6ccccc65)cc4)ccc3-c3ccc(-c4ccc(-n5c6ccccc6c6ccccc65)cc4)cc32)c2ccccc21
fluorescence lifetime (in ClCCl): 0.9 ns

SMILES: COc1cc(OC)cc(-c2ccc(-c3ccc(C#N)s3)s2)c1
fluorescence lifetime (in C1CCCCC1): 0.22 ns | fluorescence lifetime (in C1COCCO1): 0.23 ns | fluorescence lifetime (in CC#N): 0.24 ns | fluorescence lifetime (in CC(C)O): 0.23 ns | fluorescence lifetime (in CCCCO): 0.24 ns | fluorescence lifetime (in CCO): 0.24 ns | fluorescence lifetime (in CCOC(C)=O): 0.22 ns | fluorescence lifetime (in CN(C)C=O): 0.28 ns | fluorescence lifetime (in CO): 0.25 ns | fluorescence lifetime (in CS(C)=O): 0.35 ns | fluorescence lifetime (in Cc1ccccc1): 0.22 ns | fluorescence lifetime (in ClC(Cl)Cl): 0.22 ns | fluorescence lifetime (in ClCCl): 0.23 ns | fluorescence lifetime (in O): 1.02 ns

SMILES: CC(C)(C)c1ccc2c(c1)c1cc(C(C)(C)C)ccc1n2-c1cccc2c1Oc1c(-c3nc(-c4ccccc4)nc(-c4ccccc4)n3)cccc1C2(C)C
fluorescence lifetime (in Cc1ccccc1): 4 ns

SMILES: N#Cc1c(-n2c3ccccc3c3ccccc32)c(-n2c3ccc(-c4ccccc4)cc3c3cc(-c4ccccc4)ccc32)c(-n2c3ccccc3c3ccccc32)c(-n2c3ccc(-c4ccccc4)cc3c3cc(-c4ccccc4)ccc32)c1-n1c2ccccc2c2ccccc21
fluorescence lifetime (in Cc1ccccc1): 5.8 ns | fluorescence lifetime (in c1cc(-c2cccc(-n3c4ccccc4c4ccccc43)c2)cc(-n2c3ccccc3c3ccccc32)c1): 4.5 ns

SMILES: CSc1sc(C(C)=O)c2nn[nH]c(=O)c12
fluorescence lifetime (in C1CCOC1): 0.42 ns | fluorescence lifetime (in CC#N): 0.75 ns | fluorescence lifetime (in CCO): 0.41 ns | fluorescence lifetime (in CN(C)C=O): 0.25 ns | fluorescence lifetime (in CO): 0.33 ns | fluorescence lifetime (in CS(C)=O): 0.15 ns

SMILES: COC(=O)C(Cc1ccc2oc(-c3ccc(N(C)c4ccccc4)cc3)nc2c1)NC(=O)OC(C)(C)C (stereo not given)
fluorescence lifetime (in C1CCCCC1): 1.81 ns | fluorescence lifetime (in C1CCOC1): 5.29 ns | fluorescence lifetime (in C1COCCO1): 4.14 ns | fluorescence lifetime (in CC1CCCO1): 4.37 ns | fluorescence lifetime (in CC1COC(=O)O1): 4.3 ns | fluorescence lifetime (in CC#N): 4.23 ns | fluorescence lifetime (in CC(C)=O): 5.11 ns | fluorescence lifetime (in CC(C)CC(C)(C)C): 1.7 ns | fluorescence lifetime (in CC(C)CO): 4.24 ns | fluorescence lifetime (in CC(C)O): 4.41 ns | fluorescence lifetime (in CC(O)CO): 0.88 ns | fluorescence lifetime (in CCC(C)CC): 1.67 ns | fluorescence lifetime (in CCCCC): 1.88 ns | fluorescence lifetime (in CCCCCC): 1.66 ns | fluorescence lifetime (in CCCCCCCCC): 1.78 ns | fluorescence lifetime (in CCCCCCCCCC): 1.79 ns | fluorescence lifetime (in CCCCCCCO): 4.34 ns | fluorescence lifetime (in CCCCCCO): 4.64 ns | fluorescence lifetime (in CCCCCO): 5.44 ns | fluorescence lifetime (in CCCCO): 3.97 ns | fluorescence lifetime (in CCO): 1.59 ns | fluorescence lifetime (in CCOC(C)=O): 4.68 ns | fluorescence lifetime (in CCOCC): 4.4 ns | fluorescence lifetime (in CN(C)C=O): 5.1 ns | fluorescence lifetime (in CO): 0.76 ns | fluorescence lifetime (in COCCOC): 1.18 ns | fluorescence lifetime (in CS(C)=O): 4.74 ns | fluorescence lifetime (in Cc1ccccc1): 2.81 ns | fluorescence lifetime (in Cc1ccccc1C): 2.7 ns | fluorescence lifetime (in ClC(Cl)Cl): 4.71 ns | fluorescence lifetime (in ClCCl): 6.11 ns | fluorescence lifetime (in NC=O): 2.35 ns | fluorescence lifetime (in OC1CCCCC1): 4.88 ns | fluorescence lifetime (in OCCO): 0.41 ns | fluorescence lifetime (in c1ccccc1): 2.97 ns

SMILES: O=C(O)CCCCCn1c2ccccc2c(=O)c2cc(S(=O)(=O)O)ccc21
fluorescence lifetime (in O): 13 ns

Second part, the molecule after the results:

fluorescence lifetime (in ClCCl): 1.03 ns
SMILES: CCN(CC)c1ccc2c(-c3ccccc3C(=O)O)c3c([o+]c2c1)/C(=C/C=C/c1ccc(N(C)C)cc1)CCC3

fluorescence lifetime (in ClC(Cl)Cl): 5 ns
SMILES: CCCCCCCCCCCCOc1cc2c3c(ccc4c5c(OC6CCC(C(C)(C)C)CC6)cc6c7c(ccc(c1c34)c75)C(=O)N(C1CCCCC1)C6=O)C(=O)N(C1CCCCC1)C2=O (stereo not given)

fluorescence lifetime (in CC#N): 0.63 ns
SMILES: Cc1cc2nc3c(=O)[nH]c(=O)n(C)c3nc2cc1C

fluorescence lifetime (in ClCCl): 1.6 ns
SMILES: COc1ccc2oc(=N)c(C#N)cc2c1

fluorescence lifetime (in C1CCOC1): 0.42 ns
SMILES: Cc1cc(C)c(C2=C(c3c(C)sc(-c4ccc(-c5nc(-c6ccccc6)c(-c6ccccc6)[nH]5)cc4)c3C)C(F)(F)C(F)(F)C2(F)F)s1

fluorescence lifetime (in C1CCOC1): 2.1 ns
SMILES: CC(C)(C)[Si](C)(C)C#CC1=CC2=c3cc(C#C[Si](C)(C)C(C)(C)C)c4nc(C(F)(F)C(F)(F)C(F)(F)F)nc5c(C#C[Si](C)(C)C(C)(C)C)cc(c3c54)C3=CC(C#C[Si](C)(C)C(C)(C)C)=C4N=C(C(F)(F)C(F)(F)C(F)(F)F)N=C1C4C32 (stereo not given)

fluorescence lifetime (in ClC(Cl)Cl): 3.1 ns
SMILES: CCCCCCn1c2ccccc2c2cc3c4cc5c6ccccc6n(CCCCCC)c5cc4c4cc5c(C)cc(=O)oc5cc4c3cc21
